Inhibition data for 59 compounds are collected here from ChEMBL document CHEMBL1828601, “Small molecule peptidomimetic inhibitors of importin α/β mediated nuclear transport” (Bioorg Med Chem, 2010).

SMILES strings stand for the structures. The source made the active and inactive calls. No rule for the calls is given here.

The test system of this assay is FGM. Briefly: Inhibition of importin alpha/beta-mediated nuclear transportation of Alexa555-BSA-NLS in human FGM cell nucleus at 500 uM after 30 mins by fluorescence microscopy. In kind it is cell-based.
As for `N[C@@H](Cc1c[nH]c2ccccc12)C(=O)Nc1ccc(C(=O)N[C@@H](CCc2ccccc2)C(=O)O)cc1OCc1ccccc1`, the inhibition result was “inactive”.

For `CC[C@H](C)[C@H](N)C(=O)N1C[C@@H](C(=O)NCCc2c[nH]c3ccccc23)[C@H](C(=O)NCCc2c[nH]c3ccccc23)C1`, the inhibition entry is “inactive”.

In the case of `CC(C)COc1cc(C(=O)N[C@@H](Cc2ccc3ccccc3c2)C(=O)O)ccc1NC(=O)[C@@H](N)Cc1ccc(Cl)cc1`, the inhibition entry is “inactive”.

Regarding `CC(C)C[C@H](N)C(=O)N1C[C@@H](C(=O)NCCc2c[nH]c3ccccc23)[C@H](C(=O)NCCc2c[nH]c3ccccc23)C1`, the inhibition result is “inactive”.

As to `CC(C)COc1cc(C(=O)N[C@@H](Cc2ccc3ccccc3c2)C(=O)O)ccc1NC(=O)[C@@H](N)Cc1c[nH]cn1`, the inhibition entry was “inactive”.

Turning to `NCCCC[C@H](N)C(=O)Nc1ccc(C(=O)N[C@@H](CCc2ccccc2)C(=O)O)cc1OCc1ccccc1`, the inhibition result was “Active”.

As for `N[C@@H](CCc1ccc(Cl)cc1)C(=O)N1C[C@@H](C(=O)NCCc2c[nH]c3ccccc23)[C@H](C(=O)NCCc2c[nH]c3ccccc23)C1`, the inhibition result was “inactive”.

Take `CC(C)COc1cc(C(=O)N[C@@H](Cc2ccc3ccccc3c2)C(=O)O)ccc1NC(=O)[C@@H](N)C(C)C`: the inhibition entry was “inactive”.

`N[C@@H](Cc1c[nH]c2ccccc12)C(=O)N1C[C@@H](C(=O)NCCc2c[nH]c3ccccc23)[C@H](C(=O)NCCc2c[nH]c3ccccc23)C1`: the inhibition entry was “inactive”.

As to `CC(C)[C@H](N)C(=O)N1C[C@@H](C(=O)NCCc2c[nH]c3ccccc23)[C@H](C(=O)NCCc2c[nH]c3ccccc23)C1`, the inhibition entry was “inactive”.

In the case of `N[C@@H](CCc1ccc(O)cc1)C(=O)N1C[C@@H](C(=O)NCCc2c[nH]c3ccccc23)[C@H](C(=O)NCCc2c[nH]c3ccccc23)C1`, the inhibition entry is “inactive”.

For the compound `C[C@H](N)C(=O)N1C[C@@H](C(=O)NCCc2c[nH]c3ccccc23)[C@H](C(=O)NCCc2c[nH]c3ccccc23)C1`, the inhibition entry is “inactive”.

Regarding `CC(C)COc1cc(C(=O)N[C@@H](Cc2ccc3ccccc3c2)C(=O)O)ccc1NC(=O)[C@@H](N)Cc1ccc2ccccc2c1`, the inhibition result was “inactive”.

Take `CC(C)COc1cc(C(=O)N[C@@H](Cc2ccc3ccccc3c2)C(=O)O)ccc1NC(=O)[C@@H](N)CCc1ccccc1`: the inhibition entry was “inactive”.

On to `C[C@@H](O)[C@H](N)C(=O)N1C[C@@H](C(=O)NCCc2c[nH]c3ccccc23)[C@H](C(=O)NCCc2c[nH]c3ccccc23)C1`, for which the inhibition entry is “inactive”.

As to `N[C@@H](Cc1ccc(O)cc1)C(=O)N1C[C@@H](C(=O)NCCc2c[nH]c3ccccc23)[C@H](C(=O)NCCc2c[nH]c3ccccc23)C1`, the inhibition entry was “inactive”.

On to `N[C@@H](Cc1ccc2ccccc2c1)C(=O)N1C[C@@H](C(=O)NCCc2c[nH]c3ccccc23)[C@H](C(=O)NCCc2c[nH]c3ccccc23)C1`, for which the inhibition result is “inactive”.

With `CC(C)COc1cc(C(=O)N[C@@H](Cc2ccc3ccccc3c2)C(=O)O)ccc1NC(=O)[C@@H](N)CC(=O)O`, the inhibition result was “inactive”.

For the compound `N[C@@H](CO)C(=O)Nc1ccc(C(=O)N[C@@H](CCc2ccccc2)C(=O)O)cc1OCc1ccccc1`, the inhibition result is “Active”.

As to `NC(=O)C[C@H](N)C(=O)N1C[C@@H](C(=O)NCCc2c[nH]c3ccccc23)[C@H](C(=O)NCCc2c[nH]c3ccccc23)C1`, the inhibition result is “inactive”.

As to `CC(C)C[C@H](N)C(=O)Nc1ccc(C(=O)N[C@@H](CCc2ccccc2)C(=O)O)cc1OCc1ccccc1`, the inhibition result was “Active”.

For the compound `N[C@@H](Cc1ccc(Cl)cc1)C(=O)N1C[C@@H](C(=O)NCCc2c[nH]c3ccccc23)[C@H](C(=O)NCCc2c[nH]c3ccccc23)C1`, the inhibition result was “inactive”.

As to `NC(=O)C[C@H](N)C(=O)Nc1ccc(C(=O)N[C@@H](CCc2ccccc2)C(=O)O)cc1OCc1ccccc1`, the inhibition result was “inactive”.

`CC(C)COc1cc(C(=O)N[C@@H](Cc2ccc3ccccc3c2)C(=O)O)ccc1NC(=O)[C@@H](N)CO`: the inhibition result is “inactive”.

With `N[C@@H](CO)C(=O)N1C[C@@H](C(=O)NCCc2c[nH]c3ccccc23)[C@H](C(=O)NCCc2c[nH]c3ccccc23)C1`, the inhibition result is “inactive”.

Consider `N[C@@H](CC(=O)O)C(=O)Nc1ccc(C(=O)N[C@@H](CCc2ccccc2)C(=O)O)cc1OCc1ccccc1`, for which the inhibition result was “inactive”.

With `CC(C)COc1cc(C(=O)N[C@@H](Cc2ccc3ccccc3c2)C(=O)O)ccc1NC(=O)[C@H](C)N`, the inhibition entry was “Active”.

On to `CC(C)COc1cc(C(=O)N[C@@H](Cc2ccc3ccccc3c2)C(=O)O)ccc1NC(=O)[C@@H](N)Cc1ccc(O)cc1`, for which the inhibition entry was “Active”.

On to `CC(C)COc1cc(C(=O)N[C@@H](Cc2ccc3ccccc3c2)C(=O)O)ccc1NC(=O)[C@@H](N)Cc1c[nH]c2ccccc12`, for which the inhibition entry is “inactive”.

For the compound `N[C@@H](Cc1cnc[nH]1)C(=O)N1C[C@@H](C(=O)NCCc2c[nH]c3ccccc23)[C@H](C(=O)NCCc2c[nH]c3ccccc23)C1`, the inhibition entry is “inactive”.

`CC(C)COc1cc(C(=O)N[C@@H](Cc2ccc3ccccc3c2)C(=O)O)ccc1NC(=O)[C@@H](N)CC(N)=O`: the inhibition result is “inactive”.

`NCCCC[C@H](N)C(=O)N1C[C@@H](C(=O)NCCc2c[nH]c3ccccc23)[C@H](C(=O)NCCc2c[nH]c3ccccc23)C1`: the inhibition entry was “Active”.

In the case of `N[C@@H](Cc1ccccc1)C(=O)Nc1ccc(C(=O)N[C@@H](CCc2ccccc2)C(=O)O)cc1OCc1ccccc1`, the inhibition entry is “Active”.

For the compound `N[C@@H](CCc1ccccc1)C(=O)Nc1ccc(C(=O)N[C@@H](CCc2ccccc2)C(=O)O)cc1OCc1ccccc1`, the inhibition result is “Active”.

Take `CC[C@H](C)[C@H](N)C(=O)Nc1ccc(C(=O)N[C@@H](Cc2ccc3ccccc3c2)C(=O)O)cc1OCC(C)C`: the inhibition entry was “inactive”.

As for `CC(C)COc1cc(C(=O)N[C@@H](Cc2ccc3ccccc3c2)C(=O)O)ccc1NC(=O)[C@@H](N)CC(C)C`, the inhibition result is “inactive”.

Regarding `N[C@@H](CCc1ccccc1)C(=O)N1C[C@@H](C(=O)NCCc2c[nH]c3ccccc23)[C@H](C(=O)NCCc2c[nH]c3ccccc23)C1`, the inhibition result was “inactive”.

For `CSCC[C@H](N)C(=O)N1C[C@@H](C(=O)NCCc2c[nH]c3ccccc23)[C@H](C(=O)NCCc2c[nH]c3ccccc23)C1`, the inhibition entry was “inactive”.

On to `CC(C)COc1cc(C(=O)N[C@@H](Cc2ccc3ccccc3c2)C(=O)O)ccc1NC(=O)[C@@H](N)Cc1ccccc1`, for which the inhibition entry is “Active”.

For `COc1ccc(C[C@H](N)C(=O)Nc2ccc(C(=O)N[C@@H](Cc3ccc4ccccc4c3)C(=O)O)cc2OCC(C)C)cc1`, the inhibition result is “Active”.

For the compound `CSCC[C@H](N)C(=O)Nc1ccc(C(=O)N[C@@H](CCc2ccccc2)C(=O)O)cc1OCc1ccccc1`, the inhibition result was “Active”.

On to `COc1ccc(C[C@H](N)C(=O)Nc2ccc(C(=O)N[C@@H](CCc3ccccc3)C(=O)O)cc2OCc2ccccc2)cc1`, for which the inhibition entry is “inactive”.

Turning to `N[C@@H](Cc1ccccc1)C(=O)N1C[C@@H](C(=O)NCCc2c[nH]c3ccccc23)[C@H](C(=O)NCCc2c[nH]c3ccccc23)C1`, the inhibition entry was “inactive”.

Turning to `C[C@H](N)C(=O)Nc1ccc(C(=O)N[C@@H](CCc2ccccc2)C(=O)O)cc1OCc1ccccc1`, the inhibition entry was “inactive”.

Regarding `N[C@@H](CC(=O)O)C(=O)N1C[C@@H](C(=O)NCCc2c[nH]c3ccccc23)[C@H](C(=O)NCCc2c[nH]c3ccccc23)C1`, the inhibition result is “inactive”.

For the compound `CC(C)COc1cc(C(=O)N[C@@H](Cc2ccc3ccccc3c2)C(=O)O)ccc1NC(=O)[C@@H](N)CCCCN`, the inhibition entry was “inactive”.

In the case of `CC(C)COc1cc(C(=O)N[C@@H](Cc2ccc3ccccc3c2)C(=O)O)ccc1NC(=O)[C@@H](N)[C@@H](C)O`, the inhibition result was “inactive”.

Take `CC[C@H](N)C(=O)Nc1ccc(C(=O)N[C@@H](CCc2ccccc2)C(=O)O)cc1OCc1ccccc1`: the inhibition entry is “Active”.

Regarding `C[C@@H](O)[C@H](N)C(=O)Nc1ccc(C(=O)N[C@@H](CCc2ccccc2)C(=O)O)cc1OCc1ccccc1`, the inhibition entry is “Active”.

Consider `N[C@@H](Cc1ccc(O)cc1)C(=O)Nc1ccc(C(=O)N[C@@H](CCc2ccccc2)C(=O)O)cc1OCc1ccccc1`, for which the inhibition result was “Active”.

In the case of `CC(C)[C@H](N)C(=O)Nc1ccc(C(=O)N[C@@H](CCc2ccccc2)C(=O)O)cc1OCc1ccccc1`, the inhibition result is “Active”.

Turning to `NCC(=O)Nc1ccc(C(=O)N[C@@H](CCc2ccccc2)C(=O)O)cc1OCc1ccccc1`, the inhibition entry is “Active”.

For `CC(C)COc1cc(C(=O)N[C@@H](Cc2ccc3ccccc3c2)C(=O)O)ccc1NC(=O)CN`, the inhibition result is “inactive”.

In the case of `COc1ccc(C[C@H](N)C(=O)N2C[C@@H](C(=O)NCCc3c[nH]c4ccccc34)[C@H](C(=O)NCCc3c[nH]c4ccccc34)C2)cc1`, the inhibition result is “inactive”.

Consider `N[C@@H](Cc1ccc2ccccc2c1)C(=O)Nc1ccc(C(=O)N[C@@H](CCc2ccccc2)C(=O)O)cc1OCc1ccccc1`, for which the inhibition result is “inactive”.

For the compound `N[C@@H](Cc1ccc(Cl)cc1)C(=O)Nc1ccc(C(=O)N[C@@H](CCc2ccccc2)C(=O)O)cc1OCc1ccccc1`, the inhibition entry was “inactive”.

For the compound `CC[C@H](N)C(=O)Nc1ccc(C(=O)N[C@@H](Cc2ccc3ccccc3c2)C(=O)O)cc1OCC(C)C`, the inhibition result was “inactive”.

In the case of `CSCC[C@H](N)C(=O)Nc1ccc(C(=O)N[C@@H](Cc2ccc3ccccc3c2)C(=O)O)cc1OCC(C)C`, the inhibition result is “inactive”.

Consider `N[C@@H](Cc1c[nH]cn1)C(=O)Nc1ccc(C(=O)N[C@@H](CCc2ccccc2)C(=O)O)cc1OCc1ccccc1`, for which the inhibition result was “inactive”.
